Results taken from patent publication US20070160684A1, “Methods for increasing cancer cell chemosensitivity” (priority 2005, published 2007).

How the values were obtained:
[1] = system: ATM-deficient pEBS7 cells and ATM-proficient YZ5 cells; test: MTT cell viability assay; assay type: cell-based; settings: Dox 0-1 μM
[2] = system: HMGA2/Ku70/Ku80 complex; test: Co-immunoprecipitation after Dox treatment; assay type: cell-based
[3] = system: Pa-4 cells; settings: 4 mM caffeine or 1 μM Dox
[4] = system: ATM phosphorylation; test: Western analysis of ATM phosphorylation in HeLa and HeLa/HMGA2 cells; assay type: cell-based; settings: Dox
Protocol: (§1) To ascertain whether HMGA2 effects Dox-induced ATM signaling activation, phosphorylation of ATM Ser1981 and H2AX Ser139 was assayed in the presence and absence of Dox (2 μM in ATM assays, 1 μM in H2AX assays). At various timepoints after Dox treatment, cell lysates were removed and subjected to Western analyses using monoclonal anti-phospho-ATM antibodies (Ser1981), polyclonal anti-ATM antibodies (Santa Cruz Biotechnology, Santa Cruz, Calif.), monoclonal anti-phospho-H2AX antibodies ([…]) (Upstate Cell Signaling), or anti-H2AX antibodies. Control Western analyses were performed using monoclonal anti-actin antibodies. […] HeLa and HeLa/HMGA2 cells
(§2) The effect of HMGA2 on ATM and H2AX phosphorylation in HeLa cells was measured using the protocol described above. […] As for H2AX, results were similar to those observed in Pa-4 cells.

[5] = system: pSer15-p53 and pThr68-Chk2; test: Western analysis of p53 and Chk2 phosphorylation in parental and engineered HeLa cells; assay type: cell-based; settings: Dox (2 μM), HeLa/HMGA2 and HeLa/HMGA2(2K/R) cells
Protocol: pSer15-p53 and pThr68-Chk2 profiles following exposure to Dox in parental and engineered HeLa cells were assessed. […] Intriguingly, there was a noticeable accumulation of pSer15-p53 at 6 hours post-treatment and attenuation of pThr68-Chk2 at 2 hours post-treatment in HeLa/HMGA2 cells, compared with Dox-treated HeLa and HeLa/HMGA2(2K/R) cells. Together with results set forth in Example 25, HMGA2 appears to disrupt DNA damage response by interfering with the activation of DNA-PKcs, ATM and Chk2.

[6] = system: HeLa and HeLa/HMGA2 cells; test: MTT cell viability assay; assay type: cell-based; settings: Dox 0-1 μM
Text: HS578T, HCC1419, and CHO cells

[7] = system: HepG2, Hep3B, and CL48 cells; test: MTT cell viability assay; assay type: cell-based; settings: increasing concentrations, 72 hours
Protocol: MTT assays were conducted as described above to assess the effect of HGMA2 expression on the sensitivity of HepG2, Hep3B, and CL48 cells to Dox or cisplatin. […] To exclude the possibility that HMGA2 increases chemosensitization in general, Taxol-induced cell growth inhibition was measured in HeLa and HeLa/HMGA2 cells. Taxol is a microtubule stabilizing agent (Slichenmyer 1991) commonly used as a chemotherapeutic agent for combating breast and ovarian cancers.

[8] = system: H2AX Ser139 phosphorylation; test: Western analysis of H2AX phosphorylation in Pa-4 and Pa-4/HMGA2 cells; assay type: cell-based; settings: 1 μM Dox
Protocol: as §1
NU7026 (Calbiochem, San Diego, Calif.) was dissolved in DMSO at 5 mM and stored at −20° C. […] Cell lysates were removed and subjected to Western analyses using monoclonal anti-phospho-H2AX (Ser 139) antibodies. Control Western analyses were performed using monoclonal anti-actin antibodies.

[9] = system: Ku70-deficient MEF cells and their wild-type counterparts; test: MTT cell viability assay; assay type: cell-based; settings: increasing concentrations, 72 hours
Protocol: To confirm the involvement of DNA-PK in mediating HMGA2 chemosensitization to Dox-induced DNA damage, MTT assays were conducted as described above on Ku70-deficient (Ku70^−/^−) MEF cells and their wild-type counterparts and on DNA-PKcs-deficient MO59J cells and DNA-PKcs-proficient MO59K cells.

[10] = system: topo IIα; test: Western analysis of steady-state topo II levels in HS578T cells; assay type: cell-based; settings: 1 μM Dox, various time points
Protocol: HS578T cells were treated with 1 μM Dox, and at various time points cell lysates were removed and subjected to Western analyses using monoclonal anti-topo IIα antibody (BD Biosciences, San Jose, Calif.). Control Western analyses were performed using monoclonal anti-actin antibodies.

[11] = system: Pa-4/HMGA2 cells; test: FACS analysis after caffeine and Dox (G2/M, sub-G1); assay type: cell-based; settings: 4 mM caffeine or 1 μM Dox
Protocol: Pa-4 and Pa-4/HMGA2 cells were seeded at 50-80% confluency in 35 mm dishes and serum starved overnight to synchronize cell cycle. […] Following treatment, cells were fixed in 70% ethanol overnight, stained with 20 μg/ml propidium iodide, and subjected to FACS analysis.
Apoptosis was quantified by assessing sub-G1 cell populations.

[12] = system: ATM Ser1981 phosphorylation; test: Western analysis of ATM phosphorylation in Pa-4 and Pa-4/HMGA2 cells; assay type: cell-based; settings: 2 μM Dox
[13] = system: p53 Ser-15 and Chk2 Thr-68 phosphorylation; test: Western analysis of p53 and Chk2 phosphorylation in MO59J and MO59K cells; assay type: cell-based
Protocol: To establish the role of DNA-PK in Dox-induced p53 and Chk2 phosphorylation, MO59J (DNA-PKcs-deficient) and MO59K (DNA-PKcs-proficient) cells were treated with Dox, and their p53 and Chk2 phosphorylation profiles were probed.

[14] = in a subject; cited from earlier work
[15] = system: caspase-3 and p53; test: Western analysis of caspase-3 cleavage and p53 levels; assay type: cell-based; settings: Dox
[16] = system: H2AX phosphorylation; test: Western analysis of H2AX phosphorylation in HeLa and HeLa/HMGA2 cells; assay type: cell-based; settings: Dox
Protocol: as §1, §2

[17] = system: H2AX phosphorylation; test: Western analysis of H2AX phosphorylation in pEBS7, YZ5, and MO59J cells; assay type: cell-based; settings: 2 μM Dox for 2 hours
Protocol: pEBS7, YZ5, and MO59J cells were treated with 2 μM Dox for 2 hours, at which point cell lysates were removed and subjected to Western analyses using anti-phospho-H2AX antibodies. Control Western analyses were performed using monoclonal anti-actin antibodies.

[18] = 10 μM Dox for 30 minutes, HeLa/HMGA2 cells

COc1cccc2c1C(=O)c1c(O)c3c(c(O)c1C2=O)C[C@@](O)(C(=O)CO)C[C@@H]3O[C@H]1C[C@H](N)[C@H](O)[C@H](C)O1 [Dox, doxorubicin]
decrease in viability, pEBS7 versus YZ5 ([1]; 72 hours): less pronounced in the ATM-negative pEBS7 cells | cell viability ([1]; 72 hours after treatment): decreased cell viability in both cell types in a dose-dependent manner | DNA-PKcs in the immunocomplexes of Ku80 [2, 18]: enriched the amount of DNA-PKcs detected in the immunocomplexes of Ku80 | anti-Ku80-immunoprecipitated HMGA2 [2, 18]: decrease in anti-Ku80-immunoprecipitated HMGA2 | interaction of endogenous HMGA2 with Ku80/Ku70 ([2]; Dox, Hs578T cells): this interaction was disrupted upon Dox-treatment | apoptosis (sub-G1 cell population), single agent [3]: increase in apoptosis | cell cycle distribution / cells in G2/M, single agent ([3]; 48 hours): greatly increased the number of cells in G2/M phase | ATM phosphorylation ([4]; HeLa cells): rapid phosphorylation of ATM in HeLa cells | ATM phosphorylation ([4]; HeLa/HMGA2 cells): no ATM phosphorylation was observed | pSer15-p53 and pThr68-Chk2 signals [5]: caused induction of pSer15-p53 and pThr68-Chk2 signals | cell viability, HeLa/HMGA2 versus HeLa [6]: HMGA2 expression enhancing the chemosensitivity of cells to Dox | sensitivity, HepG2 and Hep3B versus CL48 [7]: greater sensitivity to both Dox and cisplatin than HMGA2-underexpressing CL48 cells | induction of H2AX phosphorylation ([8]; Pa-4/HMGA2 cells): ablation of Dox-mediated induction of H2AX phosphorylation | H2AX phosphorylation ([8]; Pa-4 cells): rapid phosphorylation | viability, Ku70-deficient versus wild type [9]: marked decrease in viability | steady-state topo II levels [10]: remained comparable over the time course of Dox treatment | apoptosis (sub-G1 cell population), single agent [11]: substantially larger increase in Pa-4/HMGA2 cells | cell cycle distribution / cells in G2/M, single agent ([11]; 48 hours): greatly increased the number of cells in G2/M phase | ATM phosphorylation, Pa-4 versus Pa-4/HMGA2 [12]: roughly equal in Pa-4 and Pa-4/HMGA2 cells | ATM phosphorylation ([12]; Pa-4 cells): rapid phosphorylation of ATM | p53 phosphorylation at Ser-15 ([13]; Dox, MO59J and MO59K cells): robust p53 phosphorylation at Ser-15 | Chk2 phosphorylation at Thr-68 ([13]; MO59J cells, 2 hours post-Dox treatment): barely detectable | maximum cumulative dosage limited by side effects [14]: 450 to 550 mg | caspase-3 cleavage fragment [15]: increased in HeLa/HMGA2, HepG2 and Hs578T cells | steady-state p53 levels ([15]; HeLa, HeLa/HMGA2, CL48, and HepG2 cells): increased steady-state p53 levels | induction of H2AX phosphorylation [16]: ablation of Dox-mediated induction of phosphorylation | induction of H2AX phosphorylation ([17]; YZ5 cells and MO59J cells): substantial increase in H2AX phosphorylation following Dox treatment | induction of H2AX phosphorylation ([17]; pEBS7 cells): lack of Dox-mediated induction
